In ChEMBL document CHEMBL5046276 (J Med Chem, 2022):
Calls of active or inactive are those of the source. The rule behind the calls is not given here.

Experiments:
[1] = Metabolic stability in rat liver microsomes assessed as half life at […] incubated for 45 mins in presence of NADPH by LC/MS analysis; format: ADME, Microsome
[2] = Selectivity index, ratio of IC50 for cytotoxicity against human HepG2 cells to IC50 for antimalarial activity against asexual blood stage wild-type Plasmodium falciparum 3D7; format: toxicity, cell-based; conditions: read-out: Ratio IC50
Plasmodium falciparum [3] = assay: Antimalarial activity against asexual blood stage quinine-resistant Plasmodium falcipuram C2A assessed as parasite growth inhibition incubated for 72 hrs by SYBR Green I staining based fluorescence analysis; format: functional, organism-based
Plasmodium falciparum [4] = assay: Antimalarial activity against asexual blood stage chloroquine-resistant Plasmodium falcipuram GB4 assessed as parasite growth inhibition incubated for 72 hrs by SYBR Green I staining based fluorescence analysis; format: functional, organism-based; conditions: GB4, 72 h
Plasmodium yoelii [5] = assay: Antimalarial activity against blood stage Plasmodium yoelii infected in BALB/c mouse assessed as parasite recrudescence by measuring parasitemia at 60 mg/kg, ip qd for 5 days and measured on 11 to 15 days; format: functional; conditions: time 11-15 day
Plasmodium falciparum [6] = assay: In vivo inhibition of C-terminal glmS fused HDAC2 in Plasmodium falcipuram 3D7 assessed as inhibition of parasite growth incubated for 4 hrs followed by compound washout and replacement with fresh medium with compounds measured after 68 hrs by SYBR Green I staining based fluorescence analysis; format: functional, organism-based
Plasmodium yoelii [7] = assay: Antimalarial activity against blood stage Plasmodium yoelii infected in BALB/c mouse assessed as parasite recrudescence by measuring parasitemia at 30 mg/kg, ip qd for 5 days and measured for 8 to 16 days; format: functional; conditions: time 8-16 day
[8] = Tmax in BALB/c mouse at 5 mg/kg, ip measured after upto 24 hrs by LC-MS/MS analysis; format: ADME, organism-based; conditions: in vivo
Plasmodium falciparum [9] = assay: Antimalarial activity against blood stage asynchronous Plasmodium falcipuram 3D7 assessed as suppression of parasite reproduction by measuring parasitemia at 10 nM incubated for 24 hrs followed by compound washout and replacement with fresh medium without compounds and measured after 4 days by flow cytometry; format: functional
[10] = Apparent volume of distribution in BALB/c mouse at 5 mg/kg, ip measured after upto 24 hrs by LC-MS/MS analysis; format: ADME, organism-based; conditions: in vivo, read-out: Vz/F
[11] = Toxicity in BALB/c mouse infected with blood stage Plasmodium yoelii assessed as animal death at 30 to 90 mg/kg, ip qd for 5 days and measured on day 60; format: organism-based; conditions: in vivo, 1440 h, dose 30-90 mg/kg, time 60 day
[12] = Cytotoxicity against human HepG2 cells incubated for 72 hrs by CCK-8 assay
[13] = Toxicity in BALB/c mouse infected with blood stage Plasmodium yoelii assessed as animal death at 60 mg/kg, ip qd for 5 days measured from day 2 post compound treatment; format: organism-based; conditions: in vivo, 120 h, time 5 day
[14] = Toxicity in BALB/c mouse infected with blood stage Plasmodium yoelii assessed as body weight loss at 30 to 90 mg/kg, ip qd for 5 days and measured upto 60 days; format: organism-based; conditions: in vivo, dose 30-90 mg/kg, time <=60 day
Plasmodium falciparum [15] = assay: (§1) Antimalarial activity against ART-resistant Plasmodium falcipuram 6218 harbouring C580Y mutant infected in human RBC assessed as reduction in parasitemia in blood smear by measuring parasite survival ratio at ring stage at upto 700 nM incubated for 6 hrs followed by compound washout and replacement with fresh medium without compounds and measured after 66 hrs by ring stage survival assay; format: functional; conditions: dose nM <=700, time 6.0 hrs
[16] = Selectivity index, ratio of IC50 for cytotoxicity against HEK293T cells to IC50 for antimalarial activity against asexual blood stage wild-type Plasmodium falciparum 3D7; format: toxicity, cell-based; conditions: human, read-out: Ratio IC50
Plasmodium falciparum [17] = assay: In vivo inhibition of C-terminal TY1 fused HDAC2 in Plasmodium falcipuram 3D7 assessed as inhibition of parasite growth incubated for 4 hrs followed by compound washout and replacement with fresh medium with compounds measured after 68 hrs by SYBR Green I staining based fluorescence analysis; format: functional, organism-based
Histone deacetylase 3 = Histone deacetylase 3 (Homo sapiens, UniProt O15379); assay: Potency index, ratio of test compound IC50 to Quisinostat IC50 for inhibition of human C-terminal His tagged HDAC3 (1 to 428 residues) expressed in baculovirus-infected Sf9 cells using Ac-peptide as substrate incubated for 4 hrs
[18] = biological target: T1, Histone deacetylase 8 (Homo sapiens) (UniProt Q9BY41); assay: Potency index, ratio of test compound IC50 to Quisinostat IC50 for inhibition of recombinant human full length C-terminal His-tagged HDAC8 expressed in baculovirus-infected Sf9 insect cells using Ac-peptide as substrate incubated for 4 hrs followed by trypsin addition and further incubated for 2 hrs
T1 sequence (whole entry): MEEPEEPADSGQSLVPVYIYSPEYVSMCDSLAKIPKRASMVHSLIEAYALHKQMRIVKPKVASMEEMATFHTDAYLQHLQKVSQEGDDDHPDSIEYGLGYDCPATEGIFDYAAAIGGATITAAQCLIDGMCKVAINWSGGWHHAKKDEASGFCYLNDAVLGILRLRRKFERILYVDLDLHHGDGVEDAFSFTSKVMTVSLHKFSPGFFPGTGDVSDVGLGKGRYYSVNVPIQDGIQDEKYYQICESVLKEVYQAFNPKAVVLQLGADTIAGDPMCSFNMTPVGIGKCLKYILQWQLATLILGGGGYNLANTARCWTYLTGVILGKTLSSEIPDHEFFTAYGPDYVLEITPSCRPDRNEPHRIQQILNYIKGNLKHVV

Plasmodium yoelii [19] = assay: Antimalarial activity against blood stage Plasmodium yoelii infected in BALB/c mouse assessed as inhibition of parasitemia at 60 mg/kg, ip qd for 5 days and measured after 30 days; format: functional, organism-based; conditions: time 30.0 day
Plasmodium falciparum [20] = assay: as §1, with “wild-type” for “ART-resistant”, “3D7” for “6218 harbouring C580Y mutant”; format: functional; conditions: dose nM <=700, time 6.0 hrs
[21] = Metabolic stability in mouse liver microsomes assessed as half life at […] incubated for 45 mins in presence of NADPH by LC/MS analysis; format: ADME, Microsome; conditions: liver microsomes
[22] = In vivo inhibition of C-terminal TY1 fused HDAC1 in Plasmodium falcipuram 3D7 assessed as inhibition of parasite growth incubated for 4 hrs followed by compound washout and replacement with fresh medium with compounds measured after 68 hrs by SYBR Green I staining based fluorescence analysis; format: functional, organism-based, Plasmodium falciparum
Histone deacetylase 2 [23] = biological target: T2, Histone deacetylase 2 (Homo sapiens, UniProt Q92769); assay: biochemical; format: cell-based, Sf9
Description: Inhibition of recombinant human full length C-terminal His tagged HDAC2 (1 to 488 residues) expressed in baculovirus-infected Sf9 insect cells using Ac-peptide as substrate incubated for 4 hrs

Plasmodium falciparum [24] = assay: Inhibition of Plasmodium falcipuram HDAC assessed as effect on parasite histone deacetylation level at 5 to 20 nM incubated for 4 hrs by Western blot analysis; conditions: dose 5-20 nM
Plasmodium falciparum [25] = assay: as §1, with “6320” for “6218”; format: functional; conditions: dose nM <=700, time 6.0 hrs
Histone deacetylase 2 [26] = biological target: T2, Histone deacetylase 2; assay: Potency index, ratio of test compound IC50 to Quisinostat IC50 for inhibition of recombinant human full length C-terminal His tagged HDAC2 (1 to 488 residues) expressed in baculovirus-infected Sf9 insect cells using Ac-peptide as substrate incubated for 4 hrs
[27] = Metabolic stability in mouse liver microsomes assessed as intrinsic clearance at […] incubated for 45 mins in presence of NADPH by LC/MS analysis; format: ADME, Microsome; conditions: read-out: CLH
Plasmodium falciparum [28] = assay: Antimalarial activity against asexual blood stage sulfadoxine-pyrimethamine/mefloquine-resistant Plasmodium falcipuram CP286 assessed as parasite growth inhibition incubated for 72 hrs by SYBR Green I staining based fluorescence analysis; format: functional, organism-based; conditions: CP286, 72 h

T2 sequence (Q92769 whole entry): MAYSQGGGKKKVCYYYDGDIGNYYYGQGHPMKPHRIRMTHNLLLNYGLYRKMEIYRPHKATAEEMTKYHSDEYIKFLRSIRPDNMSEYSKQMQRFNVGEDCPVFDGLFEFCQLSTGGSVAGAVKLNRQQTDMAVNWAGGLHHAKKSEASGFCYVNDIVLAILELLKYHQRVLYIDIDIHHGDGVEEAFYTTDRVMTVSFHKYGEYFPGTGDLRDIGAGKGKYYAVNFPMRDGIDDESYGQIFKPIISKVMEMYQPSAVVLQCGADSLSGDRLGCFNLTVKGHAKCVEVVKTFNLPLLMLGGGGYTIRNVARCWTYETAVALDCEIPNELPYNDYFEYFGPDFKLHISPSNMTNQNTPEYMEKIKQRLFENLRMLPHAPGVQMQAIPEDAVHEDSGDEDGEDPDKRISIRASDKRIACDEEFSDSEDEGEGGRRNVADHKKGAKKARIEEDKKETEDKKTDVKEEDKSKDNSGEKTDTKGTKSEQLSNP
Histone deacetylase 3, sequence (O15379 whole entry, the tested form may be a part): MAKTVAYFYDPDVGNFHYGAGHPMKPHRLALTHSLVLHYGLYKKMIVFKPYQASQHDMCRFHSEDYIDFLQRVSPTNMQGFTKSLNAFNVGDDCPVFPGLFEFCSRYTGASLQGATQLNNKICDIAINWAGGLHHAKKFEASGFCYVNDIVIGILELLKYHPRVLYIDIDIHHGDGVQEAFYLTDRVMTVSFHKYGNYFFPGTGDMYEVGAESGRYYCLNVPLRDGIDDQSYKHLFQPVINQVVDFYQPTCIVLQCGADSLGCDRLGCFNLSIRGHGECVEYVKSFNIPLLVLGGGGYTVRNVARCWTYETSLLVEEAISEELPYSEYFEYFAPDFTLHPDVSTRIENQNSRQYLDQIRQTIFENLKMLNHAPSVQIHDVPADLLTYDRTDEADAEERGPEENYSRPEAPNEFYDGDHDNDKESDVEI

Cl.Cn1cc(CN2CC3(CCN(c4ncc(C(=O)NO)cn4)C3)C2)c2ccc(C#N)cc21
half-life [1]: > 2 h
selectivity ratio [2]: 810
IC50 (Plasmodium falciparum [3]): 2.18 nM
IC50 (Plasmodium falciparum [4]): 3.06 nM
Activity (Plasmodium yoelii [5]): 0.01%
inhibition (Plasmodium falciparum [6]): Active
Activity (Plasmodium yoelii [7]): 0.02%
Tmax [8]: 0.25 h
Activity (Plasmodium falciparum [9]): 100%
Vd/F [10]: 10.2 L/kg
Activity [11]: Non-Toxic
IC50 at 72 h [12]: 1020 nM
Activity [13]: Non-Toxic
Activity [14]: Non-Toxic
Activity (Plasmodium falciparum [15]): Active
selectivity ratio [16]: 960
inhibition (Plasmodium falciparum [17]): Active
Ratio IC50 (Histone deacetylase 3): 3
Ratio IC50 [18]: 3
Activity (Plasmodium yoelii [19]): Active
Activity (Plasmodium falciparum [20]): Active
half-life [21]: 1.34 h
IC50 [22]: 82.5 nM
IC50 (Histone deacetylase 2 [23]): 5.1 nM
Activity (Plasmodium falciparum [24]): Active
Activity (Plasmodium falciparum [25]): Active
Ratio IC50 (Histone deacetylase 2 [26]): 3
CLint scaled [27]: 68.1 mL/min/kg
IC50 (Plasmodium falciparum [28]): 5.85 nM
